According to PMC3006138, “Fexinidazole – A New Oral Nitroimidazole Drug Candidate Entering Clinical Development for the Treatment of Sleeping Sickness” (PLoS Neglected Tropical Diseases, 2010):
Several values for one entry are separate records, joined by “and”; a condition that tells them apart may be missing. Identical values can stand only once.

How the values were obtained:
[1] = test system: T. b. gambiense (STIB 930); experiment: In vitro trypanocidal assay (Alamar Blue); assay type: cell-based, Trypanosoma brucei gambiense; details: Trypanosoma brucei, 72 h; read-out: IC50
Method in brief: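 Parasites at 3×10^4/mL in modified MEM with 15% heat-inactivated horse serum, 72 h at 37°C, 5% CO2, with Alamar Blue for final 3 h; fluorescence ex 536/em 588 nm, IC50 from sigmoidal curves. Cytotoxicity: L-6 rat skeletal myoblasts at 4×10^4/mL, same conditions.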

[2] = Mouse pharmacokinetics after 5-day oral dosing; details: for AUC0-tlast / AUC0-∞: fexinidazole 200 mg/kg/day po, Day 5
[3] = test system: rat hepatocytes; experiment: Hepatocyte intrinsic clearance and metabolite profile; assay type: in vitro ADME; details: fexinidazole 10 µM
Procedure: (§1) Fexinidazole was incubated with cryopreserved hepatocytes from male CD-1 mice, male Sprague Dawley rats, male beagle dogs, male cynomolgus monkeys, and from pooled white or African-American human donor samples (purchased commercially), at concentrations of 1 µM and 10 µM. […] The incubated samples were analyzed by LC-MS after extraction into acetonitrile.
(§2) A quality control analysis of fexinidazole was performed via 1H-NMR in DMSO and LC- […]
(§3) provided by the Swiss Tropical Institute (Basel, Switzerland).
(§4) Reagents and solvents were of analytical grade and obtained from Sigma-Aldrich (St. Louis, […]
(§5) Cryopreserved hepatocytes from the male CD1 mouse, lot CSI; male Sprague Dawley rat, lot LPL; male beagle dog, lot BWX; male cynomolgus monkey, lot EHH; and pooled human samples, lot MJI, were purchased from In Vitro Technologies Inc (Baltimore, Maryland, […]
(§6) 5.4. In vitro Incubations
(§7) On the day of the experiment a 10 mM stock solution of fexinidazole in DMSO was prepared and, within 3 hours, aliquots of this freshly prepared solution, after suitable dilution, were added to the incubation matrix, to reach fexinidazole final concentrations of 1 and 10 µM. The final percentage of DMSO was 0.01% in the incubation samples for the […]
(§8) On the day of experiment, the cryopreserved hepatocytes were thawed following the detailed instructions provided by the supplier.
(§9) The number of viable cells was determined using a Trypan Blue exclusion method.
(§10) 5.4.1. Intrinsic Clearance Study […]
(§11) µM with mouse, rat, dog, monkey and human hepatocytes (300000 cells/mL for the mouse and 1 million cells/mL for the other species) in a final incubation volume of 0.75 mL […]
(§12) Incubations were performed in duplicate in a 48-well plate under shaking. Sampling was performed using an automatic liquid handling system (Multiprobe II EX, Packard). At 0, 1, 5, 10, 15, 20, 30, 60 and 120 minutes, 50 µL aliquots of the incubates were taken, then 80 µL of ice-cold acetonitrile and 20 µL of 1 µM warfarin in acetonitrile (internal standard) were added, and samples centrifuged at 2000 rpm for 20 min. The supernatant was analyzed by LC-MS/MS. […]
(§13) the medium alone at t = 0 and 120 minutes.
(§14) For the determination of phase I and phase II activity of hepatocytes, 7-ethoxycoumarin (7-EC) 1 µM, and 7-hydroxycoumarin (7-HC) 30 µM were used as positive controls and incubated under the same conditions as fexinidazole. Aliquots of incubates were taken at 0, 10, 20, 30, 60 and 120 minutes and processed as fexinidazole samples.
(§15) 5.4.2. Metabolite Profile Study
(§16) For metabolite profiling, fexinidazole was incubated at a concentration of 10 µM with mouse, rat, dog, monkey and human hepatocytes (300000 cells/mL for the mouse and 1 million cells/mL for the other species) in a final incubation volume of 2 mL Leibovitz L-15 […]
(§17) Aliquots of the incubation samples were taken at t = 0, 30 and 120 minutes; the metabolism was stopped by the addition of an equal volume of cold acetonitrile and the samples centrifuged at 1500 rpm for 20 min. The supernatant was stored at -20°C until analysis. Control incubations were performed with the compound in the medium alone […]
(§18) 5.5. Analysis of Samples for Intrinsic Clearance Determination
(§19) The analysis of the samples for intrinsic clearance determination was performed by an LC-MS/MS method, using the following conditions:
(§20) HPLC Equipment and Conditions
(§21) HPLC system Agilent 1100 binary pump (Agilent, Palo Alto, USA)
(§22) Autosampler CTC Pal (Alfatech, San Jose, USA)
(§23) Analytical column Guard Column SB-C8 4.6 x 12.5 mm, 5 µm (Zorbax)
(§24) Column temperature ambient
(§25) Mobile phase A 10 mM ammonium formate pH 4.0: acetonitrile (95:5, v:v)
(§26) Mobile phase B 10 mM ammonium formate pH 4.0: acetonitrile (5:95, v:v) […]
(§27) Gradient conditions Step Total time (min) flow (µL/min) %A % B […]
(§28) MS Equipment and Conditions
(§29) Mass spectrometer API 4000 Triple Quadrupole (MDS-Sciex, Toronto, […]
(§30) Source Turbo Ion Spray (TIS)
(§31) Ion mode Positive for fexinidazole and 7-EC.
(§32) Negative for 7-HC, 7-HC sulphate and 7-HC glucuronide.

[4] = target: hERG (Homo sapiens, UniProt Q12809); experiment: hERG tail current, patch clamp in HEK 293 cells; details: for Residual Current (% of control): 37°C
[5] = test system: monkey hepatocytes; experiment: Hepatocyte intrinsic clearance and metabolite profile; assay type: in vitro ADME, cynomolgus monkey; details: fexinidazole 10 µM
Procedure: as §1, §2, §3, §4, §5, §6, §7, §8, §9, §10, §11, §12, §13, §14, §15, §16, §17, §18, §19, §20, §21, §22, §23, §24, §25, §26, §27, §28, §29, §30, §31, §32

[6] = male, NMRI, mouse, plasma, po, 200 mg/kg/day

Chain of hERG (Q12809 whole entry): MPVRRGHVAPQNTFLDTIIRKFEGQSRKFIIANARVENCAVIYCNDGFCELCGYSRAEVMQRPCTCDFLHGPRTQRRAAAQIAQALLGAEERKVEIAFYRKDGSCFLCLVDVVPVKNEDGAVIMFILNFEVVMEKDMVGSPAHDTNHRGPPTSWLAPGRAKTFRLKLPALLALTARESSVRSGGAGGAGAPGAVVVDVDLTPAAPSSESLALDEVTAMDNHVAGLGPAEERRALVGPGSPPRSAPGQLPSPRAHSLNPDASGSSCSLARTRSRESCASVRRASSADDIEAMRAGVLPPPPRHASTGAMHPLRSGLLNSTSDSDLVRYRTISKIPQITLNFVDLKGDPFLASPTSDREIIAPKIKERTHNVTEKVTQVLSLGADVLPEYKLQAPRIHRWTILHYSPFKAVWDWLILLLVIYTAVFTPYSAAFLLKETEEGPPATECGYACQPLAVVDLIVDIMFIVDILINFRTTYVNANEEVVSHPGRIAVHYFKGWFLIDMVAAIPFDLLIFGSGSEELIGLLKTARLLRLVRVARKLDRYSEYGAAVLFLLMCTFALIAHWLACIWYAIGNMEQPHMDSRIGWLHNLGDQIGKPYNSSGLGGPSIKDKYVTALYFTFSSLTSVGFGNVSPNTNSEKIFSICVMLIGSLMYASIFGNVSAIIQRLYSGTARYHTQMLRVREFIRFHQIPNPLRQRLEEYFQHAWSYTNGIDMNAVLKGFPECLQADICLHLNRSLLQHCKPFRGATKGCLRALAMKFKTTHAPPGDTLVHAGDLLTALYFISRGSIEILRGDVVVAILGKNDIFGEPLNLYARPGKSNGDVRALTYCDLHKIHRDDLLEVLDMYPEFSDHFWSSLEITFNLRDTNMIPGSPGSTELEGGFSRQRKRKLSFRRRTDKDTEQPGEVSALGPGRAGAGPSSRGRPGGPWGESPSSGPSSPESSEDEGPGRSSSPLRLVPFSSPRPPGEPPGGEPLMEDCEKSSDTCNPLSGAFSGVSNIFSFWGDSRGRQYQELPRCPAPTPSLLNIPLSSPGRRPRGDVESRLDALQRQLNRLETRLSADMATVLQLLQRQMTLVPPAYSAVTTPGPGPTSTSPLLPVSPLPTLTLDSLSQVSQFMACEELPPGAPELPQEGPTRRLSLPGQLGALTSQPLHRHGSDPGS

SMILES	IC50 [1]	AUC0-tlast [2]	AUC0-∞ [2]	Cmax [2, 6]	Tmax [2, 6]	half-life [2, 6]	% of total drug related material ([3]; 30 min)	% of total drug related material ([3]; 120 min)	Residual Current (% of control) ([4]; 1 µM)	Residual Current (% of control) ([4]; 5 µM)	decrease on hERG peak tail current ([4]; 30 µM, 9.34 µg/mL)	Residual Current (% of control) ([4]; 30 µM)	effect on hERG peak tail current ([4]; 1 or 5 µM)	% of total drug related material ([5]; 30 min)	% of total drug related material ([5]; 120 min)	% of total drug related material ([3]; t=0)	effect on hERG peak tail current ([4]; 1, 5 and 30 µM)	% of total drug related material ([5]; t=0)	AUC(0-t) [2, 6]
Cn1c([N+](=O)[O-])cnc1COc1ccc(S(C)(=O)=O)cc1 [Fexinidazole sulfone]	0.16 µg/mL to 0.39 µg/mL and 480 nM to 1.25 µM	1050 µg·h/mL	1060 µg·h/mL	77600 ng/mL	3 h	2.75 h	10%	32%	96.16±8.15%	90.76±3.84%	33%	67.41±2.24%	no effect	40%	58%	–	–	–	–
Cn1c([N+](=O)[O-])cnc1COc1ccc([S+](C)[O-])cc1 (stereo not drawn) [Fexinidazole sulfoxide]	0.18 µg/mL to 0.36 µg/mL and 610 nM to 1.22 µM	161 µg·h/mL	197 µg·h/mL	33600 ng/mL	0.833 h	4.31 h	90%	68%	87.06±0.92%	101.39±8.64%	–	98.04±1.52%	–	60%	42%	32%	judged not to affect hERG peak tail current	47%	–
CSc1ccc(OCc2ncc([N+](=O)[O-])n2C)cc1 [Fexinidazole, 1-methyl-2-((p-(methylthio)phenoxy)methyl)-5-nitroimidazole]	0.16 µg/mL to 0.36 µg/mL and 580 nM to 1.29 µM	–	–	457 ± 179 ng/mL	0.833 ± 0.289 h	2.76 ± 1.26 h	–	–	100.12±4.29%	94.86±1.06%	–	88.97±8.21%	–	–	–	68%	judged not to affect hERG peak tail current	53%	1.53 ± 0.348 µg·h/mL
